Counter-ions that a name gives are not always drawn.
What was measured:
[1] = in vivo; conditions: mouse; for LD50 at 24 h: ip
Procedure: The acute toxicity was determined on groups of 10 or 20 female Swiss mice weighing 20-26 g, the compounds being administered intraperitoneally.

[2] = biological target: T1, β2-receptors on the blood vessels (Rattus norvegicus, UniProt P10608); test: β2-sympatholytic action: inhibition of Isoproterenol blood pressure reduction, rats under urethane narcosis; assay type: in vivo; conditions: for β2-Sympatholytic action R.A. (relative activity): Propranolol = 1.00, intravenous; for Q: quotient defined in footnote 6 (drawing 8), cardioselectivity, β2 versus β1 dose; for ED50: rat, iv, read-out: β2-Sympatholytic action ED 50 (dose which inhibits the Isoproterenol blood pressure reduction by 50%)
T1 construct: was tested on rats, weighing 230-280 g, under urethane narcosis; from tissue; host or cells: blood vessels in the living rat under urethane narcosis (in vivo)
T1 sequence (P10608 whole entry): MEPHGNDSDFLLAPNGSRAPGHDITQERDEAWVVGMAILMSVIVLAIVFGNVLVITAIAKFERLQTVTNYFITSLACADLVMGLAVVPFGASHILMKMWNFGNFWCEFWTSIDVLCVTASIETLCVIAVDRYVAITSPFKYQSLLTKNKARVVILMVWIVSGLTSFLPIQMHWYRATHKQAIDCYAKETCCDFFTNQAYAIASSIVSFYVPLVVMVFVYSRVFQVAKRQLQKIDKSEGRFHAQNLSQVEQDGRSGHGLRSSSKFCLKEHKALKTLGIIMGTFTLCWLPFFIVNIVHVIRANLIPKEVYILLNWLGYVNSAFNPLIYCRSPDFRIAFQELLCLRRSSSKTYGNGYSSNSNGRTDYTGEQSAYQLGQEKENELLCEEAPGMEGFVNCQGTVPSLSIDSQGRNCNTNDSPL

[3] = biological target: T2, cardiac β1-receptors (Rattus norvegicus, UniProt P18090); test: β1-sympatholytic action: inhibition of Isoproterenol tachycardia, pithed rats; assay type: in vivo, rats (Sprague-Dawley; conditions: for β1-Sympatholytic action R.A. (relative activity): Propranolol = 1.00, pithed rats, intravenous; for ED50: rat, iv, 5 min, read-out: β1-Sympatholytic action ED 50 (dose which inhibits the Isoproterenol tachycardia by 50%); for cardiac β1-receptors blocked at doses lower than those required to block β2-receptors / β1-sympatholytic activity greater than that of Propranolol: rats
T2 construct: in pithed rats (Sprague-Dawley, Mus rattus; weight 230-280 g) causes increases in pulse rate; from tissue; host or cells: heart in the living pithed Sprague-Dawley rat (in vivo)
T2 sequence (P18090 whole entry): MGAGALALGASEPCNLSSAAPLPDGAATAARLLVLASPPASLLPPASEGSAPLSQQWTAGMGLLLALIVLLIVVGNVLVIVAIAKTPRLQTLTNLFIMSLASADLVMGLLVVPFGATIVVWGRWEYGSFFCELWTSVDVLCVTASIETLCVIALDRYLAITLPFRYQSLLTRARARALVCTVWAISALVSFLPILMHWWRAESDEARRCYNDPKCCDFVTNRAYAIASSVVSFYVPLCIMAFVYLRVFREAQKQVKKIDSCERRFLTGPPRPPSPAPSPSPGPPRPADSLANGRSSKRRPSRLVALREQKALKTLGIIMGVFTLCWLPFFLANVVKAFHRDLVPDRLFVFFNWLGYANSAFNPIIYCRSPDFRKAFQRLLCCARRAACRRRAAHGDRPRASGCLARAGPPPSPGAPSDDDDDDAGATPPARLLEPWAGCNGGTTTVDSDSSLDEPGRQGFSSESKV

Row | SMILES | Therapeutic range, absolute [1] | Therapeutic range, relative [1] | LD50 at 24 h [1] | β2-Sympatholytic action R.A. (relative activity) ([2]; rats under urethane narcosis) | Q [2] | ED50 [2] | β1-Sympatholytic action R.A. (relative activity) [3] | ED50 [3] | cardiac β1-receptors blocked at doses lower than those required to block β2-receptors [3] | selectivity ratio [1] | β1-sympatholytic activity greater than that of Propranolol [3] | reduction of mean pressure of the carotid artery ([2]; Isoproterenol 0.215 μg/kg intravenously, rats under urethane narcosis, average)
1 | CC(C)NCC(O)COc1cccc2sncc12 (stereo not drawn) [Example 1, 4-(2-hydroxy-3-isopropylaminopropoxy)-1,2-benzisothiazole hydrochloride] | 32,700 | 3.72 | 62100 µg/kg | 2.71 | 2.21 | 4.2 µg/kg | 6.47 | 1.9 µg/kg | 2 times |  |  | 
2 | CC(C)(C)NCC(O)COc1cccc2sncc12 (stereo not drawn) [Example 2, 4-(2-hydroxy-3-tert.-butylamino-propoxy)-1,2-benzisothiazole hydrochloride] | 94,500 | 10.76 | 154000 µg/kg | 2.84 | 2.47 | 4.02 µg/kg | 7.55 | 1.63 µg/kg |  |  |  | 
3 | CCC(C)NCC(O)COc1cccc2sncc12 (stereo not drawn) [Example 14, 4-(2-Hydroxy-3-sec.-butylamino-propoxy)-1,2-benzisothiazole] |  | 7.18 | 96400 µg/kg | 1.08 | 6.93 | 10.6 µg/kg | 8.04 | 1.53 µg/kg |  | 63000 | 8 times | 
4 | CCC(C)(C)NCC(O)COc1cccc2sncc12 (stereo not drawn) [Example 15, 4-[2-Hydroxy-3-(2-methyl-butyl-2-amino)-propoxy]-1,2-benzisothiazole] |  | 8.92 | 144000 µg/kg | 1.38 | 4.48 | 8.24 µg/kg | 6.68 | 1.84 µg/kg |  | 78300 |  | 
5 | CCC(C)(CC)NCC(O)COc1cccc2sncc12 (stereo not drawn) [Example 16, 4-[2-Hydroxy-3-(3-methyl-pentyl-3-amino)-propoxy]-1,2-benzisothiazole] |  | 4.44 | 128000 µg/kg | 0.94 | 3.69 | 12.1 µg/kg | 3.75 | 3.28 µg/kg |  | 39000 |  | 
6 | C#CC(C)(C)NCC(O)COc1cccc2sncc12 (stereo not drawn) [Example 27, 4-[2-Hydroxy-3-(2-methyl-but-3-ynyl-2-amino)-propoxy]-1,2-benzisothiazole] |  | 9.11 | 184000 µg/kg | 1.98 | 2.50 | 5.75 µg/kg | 5.35 | 2.3 µg/kg |  | 80000 |  | 
7 | COCC(C)NCC(O)COc1cccc2sncc12 (stereo not drawn) [Example 29, 4-[2-Hydroxy-3-(1-methoxy-propyl-2-amino)-propoxy]-1,2-benzisothiazole] |  | 3.11 | 135000 µg/kg | 0.26 | 8.90 | 44 µg/kg | 2.48 | 4.95 µg/kg |  | 27300 | 2.5 times | 
8 | CCCC(C)NCC(O)COc1cccc2sncc12 (stereo not drawn) [Example 35, 4-[2-Hydroxy-3-(pentyl-2-amino)-propoxy]-1,2-benziso-thiazole] |  | 2.72 | 60300 µg/kg | 0.42 | 10.70 | 27 µg/kg | 4.88 | 2.52 µg/kg | 11 times | 23900 |  | 
9 | CC(C)NCC(O)c1ccc(O)c(O)c1 (stereo not drawn) [Isoproterenol, reference compound] |  |  |  |  |  |  |  |  |  |  |  | 30%

From patent US4168317A, “Amino derivatives of 4-hydroxy-1,2-benzisothiazole” (BASF Aktiengesellschaft, priority 1977, dated 1979)
